Literature values as cited in patent US20070149443A1, “Methods of treating obesity using enterostatin” (priority 2005, published 2007).

Conditions: administered orally to humans; literature report

enterostatin
did not affect: body weight | energy expenditure | food intake
